# Data as given in PMC10840383, “Clinical features, functional consequences, and rescue pharmacology of missense GRID1 and GRID2 human variants” (Human Molecular Genetics, 2023).
# Changes are numbered by the printed parent chain.
# How the values were obtained:
# Assay type in all cases: cell-based
# [1] = target: T1, GluD2-T649A (Rattus norvegicus, UniProt Q63226, T649A); experiment: TEVC of constitutive current, Xenopus oocytes expressing GluD2-T649A; settings: for IC50: inhibitors of constitutively active GluD2 current, read-out: T649A IC50
# T1 construct: expressed in transfected cells; host or cells: Xenopus laevis oocytes injected with cRNA
# T1 sequence (Q63226 24-1007 T649A): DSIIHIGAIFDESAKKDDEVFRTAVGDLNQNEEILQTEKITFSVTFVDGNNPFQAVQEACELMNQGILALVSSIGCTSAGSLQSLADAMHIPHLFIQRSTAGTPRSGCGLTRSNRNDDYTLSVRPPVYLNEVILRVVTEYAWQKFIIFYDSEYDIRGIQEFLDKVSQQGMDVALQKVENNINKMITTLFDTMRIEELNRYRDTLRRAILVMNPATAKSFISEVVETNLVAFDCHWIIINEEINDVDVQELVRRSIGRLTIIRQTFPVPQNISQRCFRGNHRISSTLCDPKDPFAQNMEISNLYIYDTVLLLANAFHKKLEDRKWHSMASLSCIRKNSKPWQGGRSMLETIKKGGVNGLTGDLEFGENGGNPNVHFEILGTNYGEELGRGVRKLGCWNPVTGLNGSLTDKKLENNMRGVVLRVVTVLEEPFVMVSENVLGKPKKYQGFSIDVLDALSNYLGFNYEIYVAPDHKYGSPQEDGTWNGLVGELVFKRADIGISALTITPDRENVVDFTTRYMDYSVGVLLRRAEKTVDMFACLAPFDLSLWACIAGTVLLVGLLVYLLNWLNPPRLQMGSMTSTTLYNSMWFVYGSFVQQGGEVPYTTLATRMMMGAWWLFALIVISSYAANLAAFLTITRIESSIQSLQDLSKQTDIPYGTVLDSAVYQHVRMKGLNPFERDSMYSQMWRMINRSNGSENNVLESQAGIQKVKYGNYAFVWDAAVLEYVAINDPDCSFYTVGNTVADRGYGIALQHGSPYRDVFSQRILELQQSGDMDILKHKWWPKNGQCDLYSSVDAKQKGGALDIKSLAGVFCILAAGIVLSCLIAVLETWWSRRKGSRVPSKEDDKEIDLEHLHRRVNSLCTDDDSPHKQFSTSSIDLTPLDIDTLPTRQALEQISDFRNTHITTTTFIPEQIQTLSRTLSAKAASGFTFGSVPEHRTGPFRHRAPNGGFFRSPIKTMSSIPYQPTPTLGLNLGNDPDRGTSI
# [2] = target: T2, GluD2-A654T (Rattus norvegicus, UniProt Q63226, A654T); experiment: TEVC of constitutive current, Xenopus oocytes expressing GluD2-A654T (lurcher); settings: for IC50: inhibitors of constitutively active GluD2 current, read-out: A654T IC50
# T2 construct: expressed in transfected cells; host or cells: Xenopus laevis oocytes injected with cRNA
# T2 sequence (Q63226 24-1007 A654T): T1 sequence (Q63226 24-1007 T649A) with A626T, A631T
# [3] = system: constitutively active GluD1 and GluD2 receptor variants; experiment: Inhibition of constitutive currents of GluD variants by channel blockers, Xenopus oocytes
# Experimental: Xenopus laevis oocytes were prepared from ovaries purchased from Xenopus 1 (Dexter, MI) as previously described, [68] and incubated at 16°C in culture Barth’s solution (in mM) 88 NaCl, 2.4 NaHCO3, 1 KCl, 0.33 Ca(NO3)2, 0.41 CaCl2, 0.82 MgSO4, 10 HEPES, pH 7.4 with NaOH, supplemented with 1 U/ml penicillin and 1 μg/ml streptomycin. Oocytes were injected with approximately 5–40 ng RNA per oocyte and then incubated at 16–19°C for 1–3 days in culture Barth’s solution. The levels of GluD2-A654D and GluD2-A654T cRNA were reduced to 1.5 ng and 2.5 ng, respectively, due to oocyte toxicity. Two-electrode voltage clamp (TEVC) recordings were performed as previously described. Unless otherwise specified, extracellular solution contained (in mM) 90 NaCl, 3 KCl, 0.5 BaCl2, 0.01 EDTA, 10 HEPES, and was brought to pH 7.4 with NaOH. The oocytes were placed in a dual track recording chamber and gravity perfused with solution exchange controlled via a computer-driven 8-valve positioner (Digital MVP Valve). […] Recording electrodes were filled with 0.3 M KCl, and currents were recorded with membrane voltage held at −40 mV. To establish constitutive activity of recombinant receptors when compared to wild type receptors, we used the oocyte recording solution described above, but with 90 mM N-methyl-D-glucamine (NMDG) chloride replacing 90 mM NaCl. […] In addition to establishing constitutive activity, 90 mM NMDG was used in recording protocols with drug treatment to obtain the percent maximum theoretical inhibition of a compound, or to determine the relative degree of drug potentiation. For Ca^2+ concentration-response curves, choline chloride was used to maintain equimolar concentrations of Cl^− ions in the extracellular solution across the changing concentrations of calcium chloride. All compounds used in this study for concentration-response oocyte recordings were dissolved in deionized water as 50–100 mM stock solutions. In some rescue pharmacology experiments, we substituted 1 mM CaCl2 for 0.5 mM BaCl2 to evaluate Ca^2+-dependent control of receptor responses.
SMILES,"Effect on constitutive current, in words [1]",Fold-shift (IC50 A654T/IC50 T649A) [1],IC50 [1],"Effect on constitutive current, in words [2]",IC50 [2],"Inhibition of constitutive currents, in words [3]"
"N[C@@H](CC(=O)O)C(=O)O [L-Aspartic Acid, L-aspartic acid]",inhibited,19,270 µM,inhibited,5000 µM,
"C[C@@H](N)C(=O)O [D-Alanine, D-alanine]",inhibited,1.2,1300 µM,inhibited,1600 µM,
NCC(=O)O [Glycine],inhibited,,,inhibited,,
CNC1(c2ccccc2Cl)CCCCC1=O (stereo not shown) [ketamine],,,,,,memantine inhibits GluD receptor constitutively active currents more effectively than ketamine
